What was measured:
TC-1 cells = assay: Vaccination combined with cisplatin chemotherapy, TC-1 tumors; format: in vivo, C57BL/6 mice; conditions: cisplatin 5 mg/kg i.v. three times, vaccine s.c. three times, with high dose tumor re-challenge, n=10
Method: To detect the LN targeting deliver y of pol ypeptide antigens by micelle, C57BL/6 mice were subcutaneousl y injected with 14.6 nmol different formulations of RhB labeled E7 peptide (E7, Pal-E7 and M-E7) at tail base. The DLNs were ex cised and digested into single cell suspension at 24h post-injection, the RhB+ DCs and Macrophages cells wer e detected b y flo w c ytom etr y.
Vaccination combined with cisplatin chemotherapy
C57BL/6 mice were inoculated subcutaneousl y with 5×10^4 TC-1 tumor cells. Two weeks later when the tumor volume reached 100 mm3 (day 0), tumor -bearing mice were treated with cisplatin (5mg/kg bod y weight) intravenousl y for three times at 5 days interval. On the same day of the last chemotherap y, mice were vaccinated subcutaneousl y with micelle vaccine or normal saline (NS) for three times at 7da ys interval. Tumor growth and tumor free rate was monitored twice per week.
Vaccination co mbined w ith surgical operation
C57BL/6 mice were injected subcutaneousl y on the right flank with 5×10^4 TC-1 tumor cells. One month later when the volume of tumor reached 1000mm 3 (day 0), mice were anesthetized and full resection was executed by excising the tumor using standard blunt dissection. Sterile silk sutures were used to close wounds.
Accompanied b y wound closure, mice were vaccinated subcutaneousl y with micelle vaccine or NS for three times at 7 days interval. […]

[1] = In vivo imaging (IVIS) of lymphatic trafficking; design: species or system C57BL/6 mice; conditions: subcutaneous at tail base, 15 μmol FITC, 0 to 168 h
Excerpt: C57BL/6 mice were subcutaneously injected with 15 μmol (FITC) of different FITC-labeled formulations (FITC, F-L, F-M) at tail base. The diffusion from injection sites was detected using an in vivo imaging system (IVIS) (Caliper life Sciences, Hopkinton, MA, USA). Spectrum unmixing technique was applied to reducing the effect of native tissue auto-fluorescence, separating detecting fluorescence and analyzing fluorescence diffusion. For imaging on inguinal and axillary LNs, LNs were excised and imaged at indicated time points. An image set (Ex: 500, Em: 540, f4, bin 8, 2 s) was collected. Living Image software Version 4.4 (Caliper Life Sciences, Waltham, MA, USA) was used to acquire and quantify the fluorescence imaging data sets.

DC2.4 cells = assay: Confocal imaging of intracellular localisation of RhB-labeled peptides; format: cell-based, mouse (C57BL/6); conditions: 20 μM RhB-labeled peptide, 37 °C, 30 min (legend; text says 2 h), LysoTracker Green or EGFP-Rab5, confocal, three independent experiments
Method: DC2.4 cells or EGFP-Rab5 expressing DC2.4 cells were seeded in 35 mm glass-bottom plates. After overnight culture, different formulations of indicated Rhodamine-labeled peptides (20 μM) were added and incubated at 37 °C for 30 min or 2 h. Then, 100 nM Lyso-Tracker Green or ER-Tracker Green (Life Technologies, Grand Island, NY, USA) was added and incubated for 5 or 20 min, respectively. The processes of PEG-PE inserting into cell membranes, peptide internalization and the co-localization of peptides with early endosome (Rab5), lysosome or ER were imaged using a confocal microscope LSM-700 (ZEISS, Germany).
TC-1, a tumor cell line transformed from C57BL/6 primar y mouse lung cells, was kindly provided b y Dr. Xuemei Xu (Institute of Basic Medical Sciences Chinese Academ y of Medical Sciences & School of Basic Medicine, Peking Union Medical College, Beijing, China). DC2.4, an immortalized DC cell line derived from C57BL/6 mice, was kindl y provided by Dr. Li Tang (Ke y Laborator y of Protein Engineering, Academ y of Military Medical Sciences, Beijing, China). RAW 264.7, a macrophage like cell line derived from BALB/c mice, was purchased from the Type Culture Collection of the Chinese Academ y of Sciences (Shanghai, China). MC38 is a murine colon adenocarcinoma cell line. MC38- OVA was sorted and subcloned after MC38 cells were stable transduced with retrovirus expressing mouse […]–O T I.
B16-F10 murine melanoma cell line was originally obtained from ATCC, catalog no.
CRL-6475. All cells were cultured in complete RPMI1640 medium according to […]
Preparation of PE G-PE micellized antigenic peptides
Briefl y, peptides (HPV16 E7 43-62 , O VA 250-264 , sCT) or Rhodamine labeled peptides (RhB-peptide) were dissolved in methanol, respectivel y. Then the three peptides were respectively mixed with corresponding amount PEG 2000 -PE or FITC labeled PEG 2000 -PE(FITC-PP) which was dissolved in chloroform in a 1/10 molar ratio of peptide/PEG-PE. Then the peptide containing micelle were prepared as described in […]

[2] = cited from earlier work
Excerpt: Both MPLA and LPS have very low critical micelle concentration to tend to form the micelle at 10^−9 mol concentration. Only their monomers can bind to the TLR4/MD-2 heterodimers, and after binding, two TLR4/MD-2 heterodimers form the TLR4/MD-2 heterotetramers for signaling transduction. As a chaperon, LBP in serum can induce disassembly of MPLA and LPS, and then transfer them with CD14 to their receptors (Supplementary Figure S3A; [36]). […] However, as a detoxic form of LPS, the adjuvant activity is also attenuated. […] One reason of PEG-PE micelles accounting for these may be its monomerization of MPLA. MPLA, as well as LPS, has very low critical micelle concentration (~10^−9 M), thus are usually present as aggregates [[32], ...

TLR4 [3] = target: T1, TLR4 (Mus musculus, UniProt Q9JHF9+Q9QUK6); assay: MPLA activity assay (TNF-α ELISA); format: cell-based, mouse (RAW264.7 cells); conditions: RAW264.7 cells, 2 h, mean±s.d. n=4
T1 construct: endogenous in cells; host or cells: RAW264.7 (mouse macrophage-like cell line)
T1 sequence (Q9JHF9 19-160): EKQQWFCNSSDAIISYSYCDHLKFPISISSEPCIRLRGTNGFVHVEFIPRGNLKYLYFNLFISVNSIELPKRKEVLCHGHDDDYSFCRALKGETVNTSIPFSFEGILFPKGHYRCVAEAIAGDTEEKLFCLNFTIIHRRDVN
T1 sequence (Q9QUK6 26-835): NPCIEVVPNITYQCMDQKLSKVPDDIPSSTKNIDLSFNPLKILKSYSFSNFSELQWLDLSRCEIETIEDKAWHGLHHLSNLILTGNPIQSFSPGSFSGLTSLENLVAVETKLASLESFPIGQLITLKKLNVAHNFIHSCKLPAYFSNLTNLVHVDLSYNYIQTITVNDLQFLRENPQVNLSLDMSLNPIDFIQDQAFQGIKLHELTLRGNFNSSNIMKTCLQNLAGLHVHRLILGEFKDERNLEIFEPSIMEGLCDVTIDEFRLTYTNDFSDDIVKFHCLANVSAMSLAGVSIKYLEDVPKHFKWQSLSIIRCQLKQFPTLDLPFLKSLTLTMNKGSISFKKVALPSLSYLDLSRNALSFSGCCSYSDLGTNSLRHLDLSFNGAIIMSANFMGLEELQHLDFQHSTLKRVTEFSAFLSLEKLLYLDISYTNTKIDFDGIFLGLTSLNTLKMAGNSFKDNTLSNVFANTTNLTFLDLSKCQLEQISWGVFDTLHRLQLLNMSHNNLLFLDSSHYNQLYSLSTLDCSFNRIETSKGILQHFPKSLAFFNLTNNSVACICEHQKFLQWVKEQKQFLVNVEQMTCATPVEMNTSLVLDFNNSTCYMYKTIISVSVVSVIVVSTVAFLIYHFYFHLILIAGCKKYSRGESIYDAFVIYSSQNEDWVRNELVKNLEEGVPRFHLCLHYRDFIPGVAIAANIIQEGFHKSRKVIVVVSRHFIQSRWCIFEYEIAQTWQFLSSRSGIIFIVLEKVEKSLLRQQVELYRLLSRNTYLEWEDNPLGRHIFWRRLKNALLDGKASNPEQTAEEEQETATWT
Method: (§1) 0.5 mg/ml with deionized water. Particle sizes were shown as intensity-w eight ed diameters. The values were repo rted as the mean ± standard deviation (SD) based on more than three individual measurements performed in triplicate.
(§2) […] RAW264.7 cells were seeded in 24-well plates overnight. Then, the cells were treated with 10, 100, 1000ng/ml MPLA, M-MPLA, Lipo/MPLA, PLA/MPLA, or PEG 2000 -DPG (1,2-dipalmitate-sn-gl yc e r o -3- O-[(polyethylene glycol)-2000]) micellized MPLA (DP-M-MP LA), PEG 2000 -L-DPG (1,2-dipalmitate-sn-gl yc e r o -3-(6-amido-2-aminohexanoyl ox y)-N-[(polyethylene glycol)-2000]) micellized MPLA (N-M-MPLA), respectively for 2 h prior to harvesting the supernatant. TLR4 activation was measured by the cumulative production of TNF-α using the mouse TNF-α ELISA kit (eBios cience, San Diego, CA, USA).
(§3) M-MPL A activity assay in serum f ree mediu m or under LBP-blocking condition RAW264.7 cells were seeded and cultured overnight. Then the cells were either treated (1) with s erum-free medium (S FM) or (2) with LBP-blocking pepti de. (1): The cells were washed with SFM three times before experiment, then treated with 100ng/ml MP LA, M-MP LA, or LPS in the p resen ce o r abs ence of serum respectivel y; (2):The cells were treated with or without LBPK95A (LBPK95A sequence:
(§4) added and incubated for 2h prior to harvesting the supernatant. TLR4 activation was […]

TLR4 [4] = target: T1, TLR4; assay: M-MPLA activity assay in serum free medium or under LBP-blocking condition; format: cell-based, mouse (RAW264.7 cells); conditions: RAW264.7 cells, 2 h, serum-free medium or 100 μg/ml LBPK95A, ELISA
Method: as §1, §2, §3, §4

TLR4/MD-2 = target: T2, TLR4/MD-2 (Mus musculus, UniProt Q9JHF9+Q9QUK6); assay: TLR4/MD-2 heterotetramer formation detection (MTS510 staining); format: cell-based, mouse (RAW264.7 cells); conditions: RAW264.7 cells, 100 ng/ml, 15 min, 37 °C, flow cytometry
T2 construct: endogenous in cells; host or cells: RAW264.7 (mouse macrophage-like cell line)
T2 sequence (Q9JHF9 19-160): as the sequence (Q9JHF9 19-160) above
T2 sequence (Q9QUK6 26-835): as the sequence (Q9QUK6 26-835) above
Method: measured as describ ed ab ove.
TLR4/MD-2 heterotetramer forma tion detecti on RAW264.7 cells were stimulated with 100ng/ml MPLA, M+MPLA, M -MPLA, or LPS for 15min at 37℃. Then the treated cells were put on ice and washed with PBS.
After blocking with anti- FcγR mAb (2.4G2), the cells were incubated with one of the following antibodies: MTS510 PE, Rat IgG2a K isotype control PE. Finally, the cells were anal yz ed b y flow cyt ometr y (Calibur, BD Bioscience).
Bone marrow dendritic cells (BMDC) g enera tion
BMDCs are generated as described previously 2. Briefly, bone marrow (BM) cells were collected from tibias and femurs of female C57BL/6 mice. At da y 0, 2×10^6 BM cells were cultured in 100mm plate with 10ml complete RPMI 1640 medium containing 200 U/ml rmGM-CSF (PeproTech, Rocky Hill, NJ). At day 3, another 10 ml RPMI 1640 medium containing 200U/ml rmGM-CSF were added. At day 6, the immature BMDCs were collected and read y to us e.
BMDCs or splenocytes from C57BL/6 mice were seeded in 96-well plates and cultured in the presence of 100 ng/ml different MPLA formulations (MPLA, M+MP LA, M- MPLA), or 10 μg empt y PEG -PE micelle. For RNA detection, BMDCs were collected 1h after stimulation. For protein detection, the supernatants were […]

[5] = Circular dichroism (CD) spectroscopy of secondary structure; format: physicochemical; conditions: free peptide or PEG-PE micellized peptide

N.N.[Cl][Pt][Cl] [cisplatin]
Mice remaining tumor-free at 3 months after treatment (TC-1 cells): none

Fluorescein isothiocyanate [FITC]
Diffusion from the injection site [1]: mostly stayed and largely retained around the injection sites even 7 days post injection

GQAEPDRAHYNIVTFCCKCD [E7, HPV16 E7_43-62 antigenic peptide, RhB-labeled for imaging]
Intracellular location of RhB-labeled peptide relative to lysosomes / endosomes (DC2.4 cells): contained within lysosomes

Monophosphoryl lipid A [MPLA]
Critical micelle concentration [2]: ~ 10^−9 M | Critical micelle concentration (concentration at which micelles tend to form) [2]: 10^−9 mol | MPLA concentration generating a comparable level of TNF-α (TLR4 [3]): 1 000 ng ml^−1 | TNF-α secretion in serum-free medium (without LBP) or with LBP-blocking peptide (TLR4 [4]): could not efficiently stimulate macrophage to secret TNF-α

SGLEQLESIINFEKL [OVA peptide, OVA250-264 antigenic peptide]
Intracellular location of RhB-labeled peptide relative to lysosomes / endosomes (DC2.4 cells): largely outside lysosomes

lipopolysaccharide [LPS]
Critical micelle concentration [2]: ~ 10^−9 M | Critical micelle concentration (concentration at which micelles tend to form) [2]: 10^−9 mol | MTS510 mAb reactive surface TLR4/MD-2 complex (TLR4/MD-2): dramatically downregulated MTS510 mAb reactive surface TLR4/MD-2 complex | TNF-α secretion in serum-free medium (without LBP) or with LBP-blocking peptide (TLR4 [4]): could not efficiently stimulate macrophage to secret TNF-α

salmon calcitonin [sCT]
Secondary structure by CD spectroscopy [5]: non-α-helical peptides | Intracellular location of RhB-labeled peptide relative to lysosomes / endosomes (DC2.4 cells): contained within lysosomes

Reference: PMC5379745, “Coordinating antigen cytosolic delivery and danger signaling to program potent cross-priming by micelle-based nanovaccine” (Cell Discovery, 2017)
